These compounds were tested on M17_3TAU(P301L) cells (assay: TAU-induced cytotoxicity (LDH) in the neuroblastoma tauopathy model). Conditions: Homo sapiens, 168 h, inhibition of TAU-induced toxicity, 7 days retinoic acid differentiation, LDH readout.
Type: cell-based
Description: A TAU expression plasmid was constructed by sub-cloning the cDNA encoding for human TAU-P301L protein, wherein proline at position 301 is substituted by a leucine residue, into mammalian expression vector pcDNA3.1 resulting in the plasmid pcDNA3.1-TAUP301L. Plasmids pcDNA3.1 and pcDNA3.1-TAU P301L were transfected into human neuroblastoma cells (BE-M17; ATCC No. CRL-2267™) using lipofectamine reagent and subsequently, independent clonal cell lines with the plasmids stably integrated into the genome were selected by antibiotic resistance selection (Geneticin (G418)), resulting in cell lines M17.pcDNA3 and M17_3TAUP301L. Expression of the TAUP301 L gene in the M17_3TAUP301 L cells was confirmed by Western blot analysis.
Differentiation of the cells with RA leads to phosphorylation and subsequent aggregation of TAU, inducing a tauopathy in these cells. Cytotoxicity of cells was measured by quantification of lactate dehydrogenase (LDH) levels. In dead cells LDH is leaked out of the cells into the medium due to a loss of plasma-membrane integrity.
Briefly, 3 days preceding the experiment pre-cultures of M17.pcDNA3 and M17_3TAU(P301L) cells were prepared, starting from a stock culture, at a density of 50.000-100.000 cells/cm2 in detection medium (Optimem Reduced Serum without phenol red (Gibco, Cat. 31985-047) supplemented with 1% fetal calf serum (FCS), 1 mM sodium pyruvate, 1×non-essential amino acids (NEAA), 500 μg/ml G418 and 0.5×antibiotic/antimycotic (ABAM)). At the day of the experiment these precultures were diluted to ˜[…] in detection medium without FCS and 60 μL of this suspension is dispensed per well into a 96-well microtiter plate. After 3 hours of incubation at 37° C./5% C02 an equal volume of detection medium containing 2.5 μM RA was added and subsequently incubated for 7 days at 37° C./5% CO2. After 7 days, LDH activity was determined using the Promega Cytotox 96 Non-Radioactive cytotoxicity assay (Cat. G1780), according the manufacturer's instructions. Cytotoxicity is measured as the ratio of LDH increase in the supernatant divided by the LDH increase in the total cell suspension (sum of the LDH measured in cells and supernatant). Toxicity was determined after 7 days of differentiation with retinoic acid in M17_3TAU(P301 L) cells compared to M17.pcDNA3 cells.
The M17_3TAU(P301L) cell line makes it possible to assess the ability of novel compounds to inhibit TAU-induced cytotoxicity. […] Compounds were tested for their ability to hamper TAU-induced toxicity at different concentrations, ranging from low non-effective concentrations to high potent concentrations. Afterwards, the dose-dependent inhibition curve was used to calculate their EC50 (Table 3B).
`Cc1cccnc1CN1CC2(C1)CN(C(=O)NCc1cccc(C(F)(F)F)c1)C2` [Cpd B435] was tested, and the EC50 was 390 nM.
`COc1ccc(CNC2CC3(C2)CC(Nc2nc(Cc4ccc(Cl)cc4)ns2)C3)c(OC)c1` (stereo not drawn) [Cpd B316, N-(3-(4-chlorobenzyl)-1,2,4-thiadiazol-5-yl)-N′-(2,4-dimethoxybenzyl) spiro[3.3]heptane-2,6-diamine] gave an EC50 of 3.1 nM.
`COc1cccc(CN2CC3(C2)CN(S(=O)(=O)Cc2ccc(F)cc2)C3)c1` [Cpd B221] gave an EC50 of 18.6 nM.
`Cc1cccnc1CN1CC2(C1)CN(C(=O)C(C)(C)Oc1ccc(Cl)cc1)C2` [Cpd B085] gave an EC50 of 3760 nM.
`Cc1cccnc1CN1CC2(C1)CN(C(=O)Oc1ccc(Cl)cc1)C2` [Cpd B141] showed an EC50 of 2.57 nM.
`COc1cccc(CN2CC3(C2)CN(C(=O)Cc2ccc(Cl)cc2)C3)c1` [Cpd B031, 2-(4-chlorophenyl)-1-(6-(3-methoxybenzyl)-2,6-diazaspiro[3.3]heptan-2-yl)ethanone] showed an EC50 of 2.01 nM.
Compound `COc1cccc(CNC2CC3(C2)CC(Nc2nc(Cc4ccc(Cl)cc4)ns2)C3)c1OC` (stereo not drawn) [Cpd B314, N-(3-(4-chlorobenzyl)-1,2,4-thiadiazol-5-yl)-N′-(2,3-dimethoxybenzyl) spiro[3.3]heptane-2,6-diamine] has an EC50 of 3 nM.
Work on `COc1cccc(CN2CC3(C2)CN(C(=O)OCc2ccc(Cl)cc2)C3)c1` [Cpd B463] yielded an EC50 of 41.7 nM.
`O=C(Cc1ccc(F)cc1)N1CC2(CN(CCc3ccccc3)C2)C1` [Cpd B030, 2-(4-Fluoro-phenyl)-1-(6-phenethyl-2,6-diaza-spiro[3.3]hept-2-yl)-ethanone] gave an EC50 of 37.7 nM.
With `O=C(CC1CCC(F)(F)CC1)N1CC2(CN(Cc3ccc(C(F)(F)F)cc3)C2)C1` [Cpd B109] the EC50 was 12.1 nM.
With `O=C(OCC1CCC(F)(F)CC1)N1CC2(CN(Cc3ccc(F)cn3)C2)C1` [Cpd B161] the EC50 was 49.3 nM.
In the case of `Cc1ccccc1CN1CC2(C1)CN(C(=O)Cc1ccc(Cl)cc1)C2` [Cpd B006, 2-(4-chlorophenyl)-1-(6-(2-methylbenzyl)-2,6-diazaspiro[3.3]heptan-2-yl)ethanone], the EC50 is reported as 2.91 nM.
`O=C(Cc1ccccc1F)N1CC2(CN(Cc3ccc(F)cc3)C2)C1` [Cpd B093] showed an EC50 of 74.6 nM.
With `Cc1cccc(C(=O)N2CC3(CN(Cc4ncccc4C)C3)C2)c1` [Cpd B407] the EC50 was 4310 nM.
In the case of `Cc1nc(CN2CC3(C2)CN(C(=O)Cc2cccc(C(F)(F)F)c2)C3)cs1` [Cpd B100], the EC50 is reported as 261 nM.
`COc1cccc(CN2CC3(C2)CN(C(=O)CCC2CCCC2)C3)c1` [Cpd B071] gave an EC50 of 2.96 nM.
Work on `O=C(OC1CCC(F)(F)CC1)N1CC2(CN(Cc3ccc(F)cc3Cl)C2)C1` [Cpd B151] yielded an EC50 of 0.52 nM.
Work on `Clc1ccc(Cc2nsc(NC3CC4(CC(NCCc5ccccc5Cl)C4)C3)n2)cc1` (stereo not drawn) [Cpd B334, N-(3-(4-chlorobenzyl)-1,2,4-thiadiazol-5-yl)-N′-(2-chlorophenethyl) spiro[3.3]heptane-2,6-diamine] yielded an EC50 of 2 nM.
Work on `O=C(Cc1ccc(Cl)cc1)N1CC2(CN(Cc3ccc(F)c(F)c3)C2)C1` [Cpd B055, 2-(4-chlorophenyl)-1-(6-(3,4-difluorobenzyl)-2,6-diazaspiro[3.3]heptan-2-yl)ethanone] yielded an EC50 of 5.13 nM.
Compound `O=C(Cc1ccc(Cl)cc1)N1CC2(CN(Cc3cscn3)C2)C1` [Cpd B043, 2-(4-chlorophenyl)-1-(6-(thiazol-4-ylmethyl)-2,6-diazaspiro[3.3]heptan-2-yl)ethanone] has an EC50 of 79.5 nM.
For `COc1cccc(CN2CC3(C2)CN(C(=O)CN(C)c2ccccc2)C3)c1` [Cpd B075], the EC50 was 61.3 nM.
In the case of `Clc1ccc(Cc2nsc(NC3CC4(CC(NCc5ccc(Cl)cc5Cl)C4)C3)n2)cc1` (stereo not drawn) [Cpd B307, N-(3-(4-chlorobenzyl)-1,2,4-thiadiazol-5-yl)-N′-(2,4-dichlorobenzyl) spiro[3.3]heptane-2,6-diamine], the EC50 is reported as 1.3 nM.
`Cc1cccc(CNC2CC3(C2)CC(Nc2nc(Cc4ccc(Cl)cc4)ns2)C3)c1` (stereo not drawn) [Cpd B324, N-(3-(4-chlorobenzyl)-1,2,4-thiadiazol-5-yl)-N′-(3-methylbenzyl) spiro[3.3]heptane-2,6-diamine] showed an EC50 of 2.6 nM.
In the case of `O=C(OCC1CCC(F)(F)CC1)N1CC2(CN(Cc3ncccc3Cl)C2)C1` [Cpd B160], the EC50 is reported as 3.68 nM.
In the case of `Cn1ncc(Cl)c1CN1CC2(C1)CN(C(=O)CC1CCC(F)(F)CC1)C2` [Cpd B438], the EC50 is reported as 317 nM.
With `O=C(NCc1ccc(F)cc1)N1CC2(CN(Cc3ccc(F)cc3)C2)C1` [Cpd B188] the EC50 was 53 nM.
`Fc1cccc(CNC2CC3(C2)CC(Nc2nc(Cc4ccc(Cl)cc4)ns2)C3)c1` (stereo not drawn) [Cpd B323, N-(3-(4-chlorobenzyl)-1,2,4-thiadiazol-5-yl)-N′-(3-fluorobenzyl)spiro[3.3]heptane-2,6-diamine] showed an EC50 of 2 nM.
`Cc1nc(CN2CC3(C2)CN(C(=O)NCC2CCC(F)(F)CC2)C3)cs1` [Cpd B194] showed an EC50 of 264 nM.
With `Cc1cccnc1CN1CC2(C1)CN(C(=O)CC1CCC(F)(F)CC1)C2` [Cpd B083] the EC50 was 18.9 nM.
Work on `O=C(Cc1ccc(Cl)cc1)N1CC2(CN(Cc3ccccn3)C2)C1` [Cpd B032, 2-(4-chlorophenyl)-1-(6-(pyridin-2-ylmethyl)-2,6-diazaspiro[3.3]heptan-2-yl)ethanone] yielded an EC50 of 48.5 nM.
Work on `COc1cccc(CN2CC3(C2)CN(C(=O)NCc2ccc(F)cc2)C3)c1` [Cpd B181] yielded an EC50 of 4.98 nM.
Compound `Cn1cc(CN2CC3(C2)CN(C(=O)OCC2CCC(F)(F)CC2)C3)c(Cl)n1` [Cpd B157] has an EC50 of 9.33 nM.
`O=C(NC12CC(F)(C1)C2)N1CC2(CN(Cc3ccc(F)cc3)C2)C1` [Cpd B190, 6-(4-fluorobenzyl)-N-(3-fluorobicyclo[1.1.1]pentan-1-yl)-2,6-diazaspiro[3.3]heptane-2-carboxamide] showed an EC50 of 491 nM.
In the case of `O=C(CC1CCC(F)(F)CC1)N1CC2(CN(Cc3ccc(F)cc3C(F)(F)F)C2)C1` [Cpd B104, 2-(4,4-difluorocyclohexyl)-1-(6-(4-fluoro-2-(trifluoromethyl)benzyl)-2,6-diazaspiro[3.3]heptan-2-yl)ethan-1-one], the EC50 is reported as 1.63 nM.
For `O=C(CC1CCC(F)(F)CC1)N1CC2(CN(Cc3ccccc3C(F)(F)F)C2)C1` [Cpd B108], the EC50 was 2.58 nM.
In the case of `O=C(NCC1CCC(F)(F)CC1)N1CC2(CN(Cc3ccc(F)cc3)C2)C1` [Cpd B167, N-((4,4-difluorocyclohexyl)methyl)-6-(4-fluorobenzyl)-2,6-diazaspiro[3.3]heptane-2-carboxamide], the EC50 is reported as 4.17 nM.
In the case of `Cc1cccnc1CN1CC2(C1)CN(C(=O)NC1CCC(F)(F)CC1)C2` [Cpd B171], the EC50 is reported as 77.8 nM.
With `COc1cccc(CN2CC3(C2)CN(C(=O)Cc2ccc(F)cc2)C3)c1` [Cpd B008, 2-(4-Fluoro-phenyl)-1-[6-(3-methoxy-benzyl)-2,6-diaza-spiro[3.3]hept-2-yl]-ethanone] the EC50 was 4 nM.
Work on `CCOc1ccccc1CNC1CC2(C1)CC(Nc1nc(Cc3ccc(Cl)cc3)ns1)C2` (stereo not drawn) [Cpd B315, N-(3-(4-chlorobenzyl)-1,2,4-thiadiazol-5-yl)-N′-(2-ethoxybenzyl) spiro[3.3]heptane-2,6-diamine] yielded an EC50 of 4 nM.
`O=C(Cc1ccc(Cl)cc1)N1CC2(CN(CC3CCCCC3)C2)C1` [Cpd B056, 2-(4-chlorophenyl)-1-(6-(cyclohexylmethyl)-2,6-diazaspiro[3.3]heptan-2-yl)ethanone] gave an EC50 of 1.44 nM.
In the case of `O=C(CC1CCC(F)(F)CC1)N1CC2(CN(Cc3ccc(Cl)cn3)C2)C1` [Cpd B113], the EC50 is reported as 12.3 nM.
With `CC(c1cccc(C(F)(F)F)c1)N1CC2(CN(C(=O)Cc3ccc(F)cc3)C2)C1` (stereo not drawn) [Cpd B015, 2-(4-Fluoro-phenyl)-1-{6-[1-(3-trifluoromethyl-phenyl)-ethyl]-2,6-diaza-spiro[3.3]hept-2-yl}-ethanone] the EC50 was 9.54 nM.
For `Cc1cccnc1CN1CC2(C1)CN(C(=O)OC1CCC(F)(F)CC1)C2` [Cpd B139], the EC50 was 20.6 nM.
Compound `Cc1nc(CN2CC3(C2)CN(C(=O)Cc2ccc(F)cc2)C3)cs1` [Cpd B019, 2-(4-Fluoro-phenyl)-1-[6-(2-methyl-thiazol-4-ylmethyl)-2,6-diaza-spiro[3.3]hept-2-yl]-ethanone] has an EC50 of 71.8 nM.
`O=C(Cc1ccccn1)N1CC2(CN(Cc3ccc(F)cc3)C2)C1` [Cpd B414] showed an EC50 of 2710 nM.
In the case of `COc1ccc(CNC2CC3(C2)CC(Nc2nc(Cc4ccc(Cl)cc4)ns2)C3)cc1F` (stereo not drawn) [Cpd B313, N-(3-(4-chlorobenzyl)-1,2,4-thiadiazol-5-yl)-N′-(3-fluoro-4-methoxybenzyl) spiro[3.3]heptane-2,6-diamine], the EC50 is reported as 2.9 nM.
Work on `O=C(OC1CCC(F)(F)CC1)N1CC2(CN(Cc3ccc(F)cn3)C2)C1` [Cpd B153] yielded an EC50 of 37.2 nM.
For `Cc1nn(C)c(CN2CC3(C2)CN(C(=O)CC2CCC(F)(F)CC2)C3)c1Cl` [Cpd B122], the EC50 was 3720 nM.
